Laboratory results reported in ChEMBL document CHEMBL1201862, “PubChem BioAssay data set” (2004).
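Tested at 5 concentrations; 48 h exposure; 96-well plates; endpoints linearly interpolated, else capped at highest concentration. The concentration for 50% growth inhibition is given as GI50.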 The source made the active and inactive calls. Rule as the data show it: active = GI50 up to about 1.1 µM and inactive = higher.

What was measured:
Assay in all cases: NCI anticancer screen, dose series, 48 h
NCI-H522 = system: NCI-H522
RPMI-8226 = system: RPMI-8226
MOLT-4 = system: MOLT-4
U-251 = system: U-251
NCI-H460 = system: NCI-H460
786-0 = system: 786-0
KM-20L2 = system: KM-20L2
HCC 2998 = system: HCC 2998
SNB-75 = system: SNB-75
XF498 = system: XF498
NCI-H226 = system: NCI-H226
M14 = system: M14
HOP-62 = system: HOP-62
LXFL 529 = system: LXFL 529
SN12C = system: SN12C
HOP-18 = system: HOP-18
LOX IMVI = system: LOX IMVI
SNB-19 = system: SNB-19
SNB-78 = system: SNB-78
RXF 393 = system: RXF 393
SF-539 = system: SF-539
OVCAR-4 = system: OVCAR-4
NCI-H23 = system: NCI-H23
DMS-273 = system: DMS-273
CCRF-CEM = system: CCRF-CEM
HCT-116 = system: HCT-116
DLD-1 = system: DLD-1
SK-MEL-28 = system: SK-MEL-28
HL-60 = system: HL-60
K562 = system: K562
COLO 205 = system: COLO 205
KM12 = system: KM12
OVCAR-3 = system: OVCAR-3
M19-MEL = system: M19-MEL
SF-295 = system: SF-295
UACC-62 = system: UACC-62
EKVX = system: EKVX
Malme-3M = system: Malme-3M
SW-620 = system: SW-620
SK-OV-3 = system: SK-OV-3
HT-29 = system: HT-29
TK-10 = system: TK-10
IGROV-1 = system: IGROV-1
OVCAR-8 = system: OVCAR-8
A549 = system: A549
DMS-114 = system: DMS-114
SK-MEL-2 = system: SK-MEL-2
UACC-257 = system: UACC-257
SK-MEL-5 = system: SK-MEL-5
HOP-92 = system: HOP-92
CAKI-1 = system: CAKI-1
UO-31 = system: UO-31

Measured: GI50

O=c1oc(-c2ccccc2)cn1-c1ccccc1
inactive: NCI-H522 70.8 µM | RPMI-8226 > 100 µM | MOLT-4 > 100 µM | U-251 > 100 µM | NCI-H460 > 100 µM | 786-0 > 100 µM | KM-20L2 94.8 µM | HCC 2998 > 100 µM | SNB-75 > 100 µM | XF498 > 100 µM | NCI-H226 > 100 µM | M14 > 100 µM | HOP-62 > 100 µM | LXFL 529 > 100 µM | SN12C > 100 µM | HOP-18 95.3 µM | LOX IMVI 94.8 µM | SNB-19 > 100 µM | SNB-78 > 100 µM | RXF 393 > 100 µM | SF-539 88.7 µM | OVCAR-4 > 10 µM | NCI-H23 > 100 µM | DMS-273 > 100 µM | CCRF-CEM > 100 µM | HCT-116 > 100 µM | DLD-1 > 100 µM | SK-MEL-28 > 100 µM | HL-60 > 100 µM | K562 > 100 µM

CSc1nc(NC2OC(COC(C)=O)C(OC(C)=O)C(OC(C)=O)C2OC(C)=O)c(/N=C(\C)C(C)=O)c(=O)n1C (stereo not given)
inactive: COLO 205 > 100 µM | RPMI-8226 > 100 µM | MOLT-4 > 100 µM | KM12 > 100 µM | OVCAR-3 > 100 µM | 786-0 > 100 µM | M19-MEL > 100 µM | SF-295 > 100 µM | HCC 2998 > 100 µM | UACC-62 > 100 µM | EKVX > 100 µM | Malme-3M > 100 µM | SW-620 > 100 µM | SK-OV-3 > 100 µM | HT-29 > 100 µM | TK-10 > 100 µM | IGROV-1 > 100 µM | NCI-H226 > 100 µM | OVCAR-8 > 100 µM | A549 > 100 µM | M14 > 100 µM | HOP-62 > 100 µM | LXFL 529 > 100 µM | DMS-114 > 100 µM | HOP-18 > 100 µM | SNB-19 > 100 µM | SK-MEL-2 > 100 µM | UACC-257 > 100 µM | SK-MEL-5 > 100 µM | HOP-92 > 100 µM | SNB-78 > 100 µM | SF-539 > 100 µM | CAKI-1 > 100 µM | OVCAR-4 > 100 µM | UO-31 > 100 µM | CCRF-CEM > 100 µM | HCT-116 > 100 µM | DLD-1 > 100 µM | HL-60 > 100 µM | K562 > 100 µM
